From patent US3954793A, “1-(2-Propynyl)-1 H-indazole compounds” (priority 1973, dated 1976)
Where two headings read alike, the source gives them in different places.

Experiments:
[1] = system: IN/WHO strain house flies; assay: topical application, percent kill after 24 hours, susceptible IN/WHO strain; assay type: in vivo, female); conditions: for percent kill after 24 hours, with GS 13005: GS 13005 0.10 + synergist 0.50 μg/fly; for percent kill after 24 hours, synergist alone: insecticide 0, synergist 1 μg/fly
Outline: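 Insecticide plus synergist in acetone, 1.0 μl applied to the thorax of CO2-anesthetized 3-to-5-day-old female IN/WHO house flies, doses in μg/fly. Flies held 10 per dish, 3-5 dishes per treatment, with skim milk. Percent mortality scored after 24 h.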

[2] = system: Wilson strain house flies; assay type: in vivo, Wilson strain (susceptible); conditions: for Contact Synergistic Ratio, Pyrolan: LC50 pyrolan alone / LC50 with synergist
Outline: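 Wilson strain house flies held at room temperature in glass jars coated with acetone-deposited insecticide film, alone or with synergist at 5:1 synergist:insecticide by weight.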

[3] = system: polyvalent resistant (CH strain) houseflies; assay: whole plant or invertebrate; assay type: in vivo; conditions: CH strain; for percent kill after 24 hours, with Dimetilan: Dimetilan 2 + synergist 4 μg/fly; for percent kill after 24 hours, with GS 13005: GS 13005 1 + synergist 2 μg/fly; for mortality at 10 µg/fly: Musca domestica, topical, 24 h, read-out: percent kill after 24 hours, synergist alone; for mortality at 10 µg/fly / percent kill after 24 hours, synergist alone: insecticide 0, synergist 10 μg/fly; for percent kill after 24 hours, with pyrethrum: Pyrethrum 2 + synergist 4 μg/fly; for percent kill after 24 hours, with GS 13798: GS 13798 1 + synergist 2 μg/fly
Description: The effect of O-(2-propynyl) oximes with Dimetilan and with GS 13798 was obtained from tests on polyvalent resistant (CH strain) houseflies that had been chilled and to the dorsal region of which was applied an acetone solution of synergist and insecticide at a ratio of two to one. Duplicate tests were performed using 10 four to five-day old female houseflies per test. After dosage, the flies were put in a plastic petri dish with cotton soaked in a sugar-water solution. These doses of insecticide used without synergist caused 10-40% mortality.
In Table IX, and in the tables following it, the doses of topically applied insecticides and of synergists unless otherwise noted are expressed as micrograms per fly (μg/fly).
The effect of compounds II-C, II-D and II-E with Dimetilan and GS 13798 was determined, following the procedure of Example 5, from tests on polyvalent resistant (CH strain) houseflies. These doses of insecticide used without synergist caused 10-40% mortality.
The synergistic effect with GS 13005 of compounds I-A, I-B, I-D, I-E, I-F, I-G and I-I was determined from topical application tests to IN/WHO strain, Rutgers A strain and polyvalent CH strain houseflies using the procedures of Example 5. The percent kills of the IN/WHO strain flies after 24 hours are shown in Table XXVIII; of the Rutgers A strain, in Table XXIX; and of the polyvalent CH strain, in Table XXX. The doses of insecticide alone to the CH strain files caused 10-40% mortality.
The synergistic effect with Diazinon and GS 13005 of various of the benzyl 2-propynyl ethers identified in Tables II and IIa was determined by topical application tests on IN/WHO strain, and Rutgers A strain and polyvalent, resistant, CH strain houseflies using the procedures of Example 5. The percent kills after 24 hours of IN/WHO strain flies are shown in Table XXXI; of Rutgers A strain flies, in Table XXXII; and of CH strain flies, in Table XXXIII. The doses of insecticide alone to the CH strain flies caused 10-40% mortality.
The synergistic effect with pyrethrum of various synergist compounds was determined by topical application tests on polyvalent, resistant CH strain houseflies following the procedure of Example 5. Application of the insecticide alone caused 10-40% mortality.

[4] = system: German male cockroaches (Blatella Germanicus); assay: topical application to thorax, 24 hour mortality of German male cockroaches; assay type: in vivo
Description: The synergistic effect with mobam of synergist compounds I-B, II-H, II-K and IV-C is further illustrated by the 24 hour mortality data of German male cockroaches (Blatella Germanicus) shown in Table XXXX. The synergists and insecticide were diluted in acetone and applied in small droplets to the thorax of the insect. These doses of synergist alone gave zero percent insect mortality.
The synergistic effect with GS 13005 of compounds I-B, II-H, II-K, II-P, II-Q, II-R and IV-C is illustrated by the 24 hour mortality of German male cockroaches shown in Table XXXXI. These doses of synergist alone caused zero percent insect mortality.

[5] = Diazinon 0.03 + synergist 0.15 μg/fly
[6] = Mobam 0.20 + synergist 1 μg/fly
[7] = synergist to insecticide 5:1 by weight
[8] = Mobam 0.13 μg/fly, synergist/insecticide 0.5/1
[9] = Mobam 0.13 μg/fly, synergist/insecticide 1/1
[10] = Mobam 0.13 μg/fly, synergist/insecticide 5/1
[11] = Mobam 0.25 μg/fly, synergist/insecticide 0.5/1
[12] = Mobam 0.25 μg/fly, synergist/insecticide 1/1
[13] = Mobam 0.25 μg/fly, synergist/insecticide 2/1
[14] = Mobam 0.25 μg/fly, synergist/insecticide 5/1
[15] = Mobam 0.50 μg/fly, synergist/insecticide 0.5/1
[16] = Mobam 0.50 μg/fly, synergist/insecticide 1/1
[17] = Mobam 0.50 μg/fly, synergist/insecticide 2/1
[18] = Mobam 0.50 μg/fly, synergist/insecticide 5/1
[19] = Mobam 1.0 μg/fly, synergist/insecticide 0.5/1
[20] = Mobam 1.0 μg/fly, synergist/insecticide 1/1
[21] = Mobam 1.0 μg/fly, synergist/insecticide 2/1
[22] = Mobam 1.0 μg/fly, synergist/insecticide 5/1
[23] = Mobam 0.05 + synergist 0.25 μg/fly
[24] = Mobam 0.10 + synergist 0.50 μg/fly
[25] = Mobam 0.13 μg/fly, synergist/insecticide 2/1

Row | Compound | percent kill after 24 hours, with Diazinon [1, 5] | percent kill after 24 hours, with Mobam [1, 6] | percent kill after 24 hours, synergist alone [1] | Contact Synergistic Ratio, Pyrolan [2, 7] | Contact Synergistic Ratio, Carbaryl ([2]; in vivo) | percent kill after 24 hours, with Dimetilan [3] | percent kill after 24 hours, with GS 13005 [3] | mortality at 10 µg/fly [3] | percent kill after 24 hours, with pyrethrum [3] | percent kill after 24 hours, synergist alone [3] | percent mortality 24 hours, with Mobam [1, 8] | percent mortality 24 hours, with Mobam [1, 9] | percent mortality 24 hours, with Mobam [1, 10] | percent mortality 24 hours, with Mobam [1, 11] | percent mortality 24 hours, with Mobam [1, 12] | percent mortality 24 hours, with Mobam [1, 13] | percent mortality 24 hours, with Mobam [1, 14] | percent mortality 24 hours, with Mobam [1, 15] | percent kill after 24 hours, with Mobam [1, 23] | percent kill after 24 hours, with Mobam [1, 24] | other results
1 | C#CCON=C(C)c1ccc2ccccc2c1 [I-F] | 24% | 47% | 0% | 50 | 200 | 100% | 100% | 0% | 35% | 0% | – | – | – | – | – | – | – | – | – | – | percent kill after 24 hours, with GS 13005 [1]: 45%
2 | C#CCON=Cc1cccc2ccccc12 [I-I] | – | – | – | – | – | – | 47% | 0% | – | 0% | – | – | – | – | – | – | – | – | – | – | –
3 | C#CCOCc1c(Cl)cccc1[N+](=O)[O-] [II-K] | – | 100% | 10% | – | – | – | – | – | – | – | – | – | – | – | – | – | – | – | – | – | 24 hour mortality, with GS 13005 ([4]; GS 13005 dose 0.08 + synergist 0.40, pretreated with synergist two hours before insecticide): 100%; 24 hour mortality, with Mobam ([4]; Mobam dose 0.12 + synergist 0.60, pretreated with synergist two hours before insecticide): 100%; percent insect mortality, synergist alone (mobam test doses) ([4]; synergist doses of Table XXXX, no insecticide): zero; percent insect mortality, synergist alone (GS 13005 test doses) ([4]; synergist doses of Table XXXXI, no insecticide): zero; 24 hour percent mortality, Baygon with five parts II-K ([1]; Baygon 0.125 μg/fly, five parts synergist): 83%; 24 hour percent mortality, Bidrin with five parts II-K ([1]; Bidrin 0.063 μg/fly, five parts synergist): 0%; 24 hour percent mortality, Bidrin with five parts II-K ([1]; Bidrin 0.13 μg/fly, five parts synergist): 57%; 24 hour percent mortality, Dimetilan with five parts II-K ([1]; Dimetilan 0.031 μg/fly, five parts synergist): 7%; 24 hour percent mortality, Dimetilan with five parts II-K ([1]; Dimetilan 0.063 μg/fly, five parts synergist): 70%; 24 hour percent mortality, Dimetilan with five parts II-K ([1]; Dimetilan 0.13 μg/fly, five parts synergist): 100%; percent kill after 24 hours, synergist alone (GS 13005 part of Table XXXI) ([1]; GS 13005 0, synergist 1 μg/fly): 10%; percent kill after 24 hours, with GS 13005 [1]: 100%; 24 hour percent mortality, Gardona with five parts II-K ([1]; Gardona 0.031 μg/fly, five parts synergist): 63%; 24 hour percent mortality, Gardona with five parts II-K ([1]; Gardona 0.063 μg/fly, five parts synergist): 100%; 24 hour percent mortality, HRS 1422 with five parts II-K ([1]; HRS 1422 0.125 μg/fly, five parts synergist): 77%; 24 hour percent mortality, Pyrolan with five parts II-K ([1]; Pyrolan 0.063 μg/fly, five parts synergist): 7%; 24 hour percent mortality, Pyrolan with five parts II-K ([1]; Pyrolan 0.13 μg/fly, five parts synergist): 40%; 24 hour percent mortality, Pyrolan with five parts II-K ([1]; Pyrolan 0.25 μg/fly, five parts synergist): 80%
4 | C#CCOCc1ccc(Cl)c(Cl)c1Cl [II-D] | 40% | 100% | 0% | 30 | 200 | 100% | – | 0% | 30% | 0% | 7% | 17% | 50% | 30% | 63% | 83% | 97% | 57% | 10% | 50% | percent mortality 24 hours, with Mobam [1, 16]: 100%; percent mortality 24 hours, with Mobam [1, 17]: 97%; percent mortality 24 hours, with Mobam [1, 18]: 100%; percent mortality 24 hours, with Mobam [1, 19]: 97%; percent mortality 24 hours, with Mobam [1, 20]: 100%; percent mortality 24 hours, with Mobam [1, 21]: 100%; percent mortality 24 hours, with Mobam [1, 22]: 100%; percent kill after 24 hours, with GS 13798 [3]: 100%
5 | C#CCOCc1cc(Cl)c(Cl)cc1Cl [II-F] | – | – | – | 15 | 150 | – | – | – | – | – | 3% | 10% | 23% | 33% | 57% | 27% | 73% | 70% | – | – | percent mortality 24 hours, with Mobam [1, 25]: 0%; percent mortality 24 hours, with Mobam [1, 16]: 83%; percent mortality 24 hours, with Mobam [1, 17]: 80%; percent mortality 24 hours, with Mobam [1, 18]: 97%; percent mortality 24 hours, with Mobam [1, 19]: 100%; percent mortality 24 hours, with Mobam [1, 20]: 93%; percent mortality 24 hours, with Mobam [1, 21]: 93%; percent mortality 24 hours, with Mobam [1, 22]: 100%
6 | C#CCOCc1ccc(Cl)c(Cl)c1 [II-C] | 23% | 99% | 0% | 15 | – | 100% | – | 0% | – | 0% | – | – | – | – | – | – | – | – | 4% | 27% | Contact Synergistic Ratio, Carbaryl ([2]; LC50 carbaryl alone / LC50 with synergist, synergist to insecticide 5:1 by weight): 100
7 | C#CCOCc1c(Cl)ccc(Cl)c1Cl [II-E] | 45% | 100% | 0% | 20 | 120 | – | 100% | 10% | – | 10% | 30% | 27% | 40% | 53% | 77% | 73% | 67% | 97% | 5% | 33% | percent mortality 24 hours, with Mobam [1, 25]: 17%; percent mortality 24 hours, with Mobam [1, 16]: 97%; percent mortality 24 hours, with Mobam [1, 17]: 93%; percent mortality 24 hours, with Mobam [1, 18]: 100%; percent mortality 24 hours, with Mobam [1, 19]: 100%; percent mortality 24 hours, with Mobam [1, 20]: 100%; percent mortality 24 hours, with Mobam [1, 21]: 100%; percent mortality 24 hours, with Mobam [1, 22]: 100%; percent kill after 24 hours, with GS 13798 [3]: 100%
8 | C#CCON=Cc1ccc(Cl)cc1Cl [I-G] | – | – | 0% | – | – | – | 100% | 0% | 47% | 0% | – | – | – | – | – | – | – | – | – | – | percent kill after 24 hours, with Diazinon ([1]; Diazinon 0.02 + synergist 0.10 μg/fly): 40%
9 | C#CCON=C(C)c1ccc(Cl)cc1 [I-D] | 50% | 92% | 0% | 25 | 177 | 100% | 100% | 0% | – | 0% | – | – | – | – | – | – | – | – | 8% | 20% | percent kill after 24 hours, with GS 13798 [3]: 100%
